{"source": "patent US10166210B2", "about": "“Methods of subtyping CRC and their association with treatment of colon cancer patients with oxaliplatin” (NSABP Foundation, Inc., priority 2014, dated 2019)", "key": {"[1]": {"test_system": "stage II and III colon cancer, CRC subtypes", "assay": "C-07 discovery cohort: oxaliplatin benefit by CRC intrinsic subtype (CRC-SSP-72), Kaplan Meier analysis", "format": "in vivo, human", "description": "FIG. 3 Kaplan Meier Plots of each CRC subtype using our gene signature by CRC-SSP-72 according to treatment (FULV versus FOLFOX) using recurrence free survival (RFS) as the end point. Among identified CRC subtypes, only Enterocyte received significant benefit (HR=0.315, p=0.005).\nFIG. 4 Kaplan Meier Plots of the Enterocyte subtype and of all of the other subtypes (Goblet-like, Inflammatory, Stem-like and TA) combined into one group (Others) There is significant treatment-group interaction (p=0.012)\nWe have profiled 296 genes in 1840 patients using the nCounter Assay system (Nanostring Technologies, Seattle Wash.). Clinical data and nCounter data for the discovery dataset were merged and anonymized by the honest broker at the University of Pittsburgh as defined by standard operations under IRB approval of NSABP Biospecimen Bank and Biostatistics Center. We have developed a predictive algorithm to classify tumors into oxaliplatin benefit or no benefit group using discovery cohort of 848 patients without access to the data from the remaining 992 patients (validation cohort).\nFor C07, 2409 patients were enrolled in C-07 and all cases with tumor blocks, proper consent, clinical follow-up information and sufficient RNA yields were used in this study (N=1840). These cases were split into a discovery (N=848) and a validation (N=992) cohort (FIG. 1). […]"}, "[2]": {"test_system": "stage II and III colon adenocarcinoma", "settings": "oxaliplatin added to FU and LV; trials MOSAIC and C-07; cited from earlier work"}, "early-stage colon cancer": {"test_system": "early-stage colon cancer", "settings": "recent MOSAIC analysis; all stage II or high risk stage II patients; cited from earlier work"}}, "data": [{"smiles": "O=C1[O][Pt]2([NH][C@@H]3CCCC[C@H]3[NH]2)[O]C1=O", "note": "[oxaliplatin]", "values": [{"measurement": "recurrence free survival (RFS) HR", "setting": "[1]; Enterocyte subtype, FULV versus oxaliplatin arm, p=0.005", "result": 0.315}, {"measurement": "benefit from oxaliplatin by subtype", "setting": "[1]; enterocyte subtype versus TA, goblet, inflammatory and stem-like, treatment-group interaction p=0.012", "result": "only the enterocyte subtype received benefit"}, {"measurement": "disease free survival (DFS)", "setting": "[2]", "result": "significantly improved disease free survival"}, {"measurement": "benefit in stage II patients", "setting": "early-stage colon cancer", "result": "no statistically significant benefit"}]}]}
